Data taken from ChEMBL document CHEMBL5042524, “Discovery of Novel Histone Deacetylase 6 (HDAC6) Inhibitors with Enhanced Antitumor Immunity of Anti-PD-L1 Immunotherapy in Melanoma” (J Med Chem, 2022).
In brackets after ≈: the same amount, converted by molar mass.

Assays:
[1] = Antiproliferative activity against human YCC3/7 cells assessed as cell growth inhibition; assay type: functional, cell-based
[2] = Toxicity in C57BL/6 mouse allografted with B16-F10 cells assessed as body weight loss at 50 mg/kg, ip administered daily for 14 days; assay type: organism-based; settings: in vivo, 336 h, time 14 day
[3] = target: T1, Histone deacetylase 8 (Homo sapiens, UniProt Q9BY41); assay: Inhibition of full length recombinant human C-terminal His tagged HDAC8 expressed in baculovirus infected Sf9 insect cells using Ac-Leu-GlyLys (Tfa)-AMC as substrate preincubated for 5 mins followed by substrate addition and measured after 30 mins by fluorescence microtiter plate reader assay
T1 sequence (Q9BY41 whole entry): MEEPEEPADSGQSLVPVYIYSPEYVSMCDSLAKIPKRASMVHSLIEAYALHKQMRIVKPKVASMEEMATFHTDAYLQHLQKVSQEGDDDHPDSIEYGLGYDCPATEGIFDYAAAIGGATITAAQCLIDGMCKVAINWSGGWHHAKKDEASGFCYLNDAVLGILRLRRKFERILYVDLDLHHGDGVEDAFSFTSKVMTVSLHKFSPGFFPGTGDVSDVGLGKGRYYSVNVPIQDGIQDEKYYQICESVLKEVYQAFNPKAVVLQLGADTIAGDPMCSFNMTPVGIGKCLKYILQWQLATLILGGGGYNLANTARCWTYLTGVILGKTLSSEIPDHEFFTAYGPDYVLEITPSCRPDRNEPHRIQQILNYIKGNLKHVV

[4] = test system: MCF7; assay: cells; assay type: functional, cell-based; settings: Homo sapiens, MCF7, 48 h
Description: Antiproliferative activity against human MCF7 cells assessed as inhibition of cell proliferation measured after 48 hrs by MTT assay

[5] = test system: B16-F10; assay: cells; assay type: functional, cell-based; settings: Mus musculus, B16-F10, 48 h
Description: Antiproliferative activity against mouse B16-F10 cells assessed as inhibition of cell proliferation measured after 48 hrs by MTT assay

[6] = Antiproliferative activity against human YCC-11 cells assessed as cell growth inhibition; assay type: functional, cell-based
[7] = Cytotoxicity against human Jurkat cells assessed as reduction in cell viability incubated for 72 hrs by CCK-8 assay
[8] = target: Histone deacetylase 1 (Homo sapiens, UniProt Q13547); assay: Inhibition of recombinant human HDAC1 expressed in baculovirus expression system using Ac-Leu-Gly-Lys (Ac)-AMC as substrate preincubated for 5 mins followed by substrate addition and measured after 30 mins by fluorescence microtiter plate reader assay
[9] = Aqueous solubility of the compound incubated for 24 hrs by HPLC based shake-flask method; assay type: physicochemical; settings: buffer
[10] = test system: B16-F10; assay: Antitumour activity against mouse B16-F10 cells allografted in C57BL/6 mouse model assessed as increase in acetylated alpha tubulin expression level in tumor at 50 mg/kg, ip measured after 14 days by […] based microscopic analysis (Rvb =1.77%); assay type: functional; settings: time 14 day
[11] = test system: HCT-116; assay: cells; assay type: functional, cell-based; settings: Homo sapiens, HCT-116, 48 h
Description: Antiproliferative activity against human HCT-116 cells assessed as inhibition of cell proliferation measured after 48 hrs by MTT assay

[12] = test system: B16-F10; assay: Antitumor activity against mouse B16-F10 cells allografted in C57BL/6 mouse assessed as tumor growth inhibition at 50 mg/kg, ip administered daily for 14 days by caliper method (Rvb= 63%); assay type: functional; settings: 336 h, time 14 day, read-out: TGI
[13] = target: Histone deacetylase 3 (Homo sapiens, UniProt O15379); assay: Inhibition of recombinant human His-tagged HDAC3 expressed in baculovirus insect cells using Ac-Leu-Gly-Lys (Ac)-AMC as substrate preincubated for 5 mins followed by substrate addition and measured after 30 mins by fluorescence microtiter plate reader assay
[14] = test system: A549; assay: cells; assay type: functional, cell-based; settings: Homo sapiens, A549, 48 h
Description: Antiproliferative activity against human A549 cells assessed as inhibition of cell proliferation measured after 48 hrs by MTT assay

[15] = Toxicity in C57BL/6 mouse allografted with B16-F10 cells assessed as body weight loss at 10 mg/kg, ip administered daily for 14 days; assay type: organism-based; settings: in vivo, 336 h, time 14 day
[16] = test system: B16-F10; assay: Antitumour activity against mouse B16-F10 cells allografted in C57BL/6 mouse model assessed as decrease in PD-L1 expression level by Western blot analysis relative to control; assay type: functional; design: scale not given: the % may be the effect or the level left
[17] = test system: B16-F10; assay: Antitumour activity against mouse B16-F10 cells allografted in C57BL/6 mouse model assessed as increase in CD3 positive/CD8 positive cells in tumor at 10 mg/kg, ip administered for 14 days by flow cytometry analysis (Rvb= 6.65%); assay type: functional; settings: time 14 day
[18] = test system: B16-F10; assay: Potentiation of antitumor activity against mouse B16-F10 cells allografted in C57BL/6 mouse model assessed as decrease in PD-L1 expression level in presence of 2-(5-chloro-2-(3-cyanobenzyloxy)-4-((2-methylbiphenyl-3-yl)methoxy)benzylamino)-2-methylpropanoic acid by Western blot analysis relative to control; assay type: functional; design: scale not given: the % may be the effect or the level left
[19] = test system: B16-F10; assay: Antitumour activity against mouse B16-F10 cells allografted in C57BL/6 mouse model assessed as increase in CD3 positive/CD4 positive cells in tumor at 10 mg/kg, ip administered for 14 days by flow cytometry analysis (Rvb= 8.73%); assay type: functional; settings: time 14 day

Chain of Histone deacetylase 1 (Q13547 whole entry): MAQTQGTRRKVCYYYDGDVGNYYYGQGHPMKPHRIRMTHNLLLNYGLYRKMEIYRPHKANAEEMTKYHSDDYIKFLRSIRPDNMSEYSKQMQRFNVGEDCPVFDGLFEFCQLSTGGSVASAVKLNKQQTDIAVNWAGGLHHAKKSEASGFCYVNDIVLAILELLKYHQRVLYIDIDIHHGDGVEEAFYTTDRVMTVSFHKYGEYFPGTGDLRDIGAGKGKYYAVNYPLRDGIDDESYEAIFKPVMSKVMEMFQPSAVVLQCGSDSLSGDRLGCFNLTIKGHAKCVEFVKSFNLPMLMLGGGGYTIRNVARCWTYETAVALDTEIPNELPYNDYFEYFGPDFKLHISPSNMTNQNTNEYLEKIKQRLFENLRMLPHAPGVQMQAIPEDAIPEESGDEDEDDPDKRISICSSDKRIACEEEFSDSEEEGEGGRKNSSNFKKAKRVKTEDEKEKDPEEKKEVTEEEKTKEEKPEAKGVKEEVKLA
Chain of Histone deacetylase 3 (O15379 whole entry): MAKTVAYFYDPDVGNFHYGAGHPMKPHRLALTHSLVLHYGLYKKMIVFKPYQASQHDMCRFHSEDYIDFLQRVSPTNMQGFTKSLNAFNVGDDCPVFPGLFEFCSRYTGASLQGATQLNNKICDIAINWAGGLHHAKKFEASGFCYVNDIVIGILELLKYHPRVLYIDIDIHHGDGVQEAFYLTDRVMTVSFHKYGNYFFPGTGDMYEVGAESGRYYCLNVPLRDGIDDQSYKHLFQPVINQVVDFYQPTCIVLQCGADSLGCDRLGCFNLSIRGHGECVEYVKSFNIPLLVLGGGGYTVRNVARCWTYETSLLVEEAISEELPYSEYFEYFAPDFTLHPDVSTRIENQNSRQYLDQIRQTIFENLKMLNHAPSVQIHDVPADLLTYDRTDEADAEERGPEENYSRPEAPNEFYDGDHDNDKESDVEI

IC50 [3] | IC50 [4] | IC50 [5] | IC50 [8] | solubility thermodynamic at 24 h [9] | IC50 [11] | IC50 [13] | IC50 [14] | SMILES | IC50 [1] | Activity [2] | IC50 [6] | IC50 at 72 h [7] | Activity [10] | inhibition in vivo at 50 mg/kg [12] | Activity [15] | Activity [16] | Activity [17] | Activity [18] | Activity [19]
6210 nM | 2820 nM | 9410 nM | 260 nM | 16.1 µg/mL (≈ 36 µM) | 1470 nM | 760 nM | > 10000 nM | CC(C)(C)OC(=O)Nc1ccc(-c2cc(C(=O)NCCCCCCC(=O)NO)no2)cc1 | 6250 nM | Non-Toxic | 4080 nM | 610 nM | 37.9% | 52% | – | – | – | – | –
– | – | – | – | – | – | – | – | Cc1c(COc2cc(OCc3cccc(C#N)c3)c(CNC(C)(C)C(=O)O)cc2Cl)cccc1-c1ccccc1 | – | – | – | – | – | – | Non-Toxic | 45% | 11.2% | 70% | 15.4%
